Reference: patent publication US20250375458A1, “COMPOSITIONS AND METHODS TO COMBAT MULTIDRUG-RESISTANT AND […]-CELL-MEDIATED, O[…] INFECTIOUS DISEASES” (Theralase Technologies, Inc., priority 2024, published 2025)

Legend:
CD47 [1] = test: CD47 expression in A549 cells, RUVIDAR or RUTHERRIN with or without ionizing radiation; assay type: cell-based, human; conditions: 3 μM
Method: In the tests whose results are shown in FIGS. 8C and 8D, U87 human glioma cells or A549 lung cancer cells were treated with 3 μM of RUTHERRIN or RUVIDAR prior to drug activation by 530 nm laser light (photodynamic therapy, PDT) or ionizing radiation. Cells were then collected and stained with fluorescent antibody to CD47 and analyzed by flow cytometry. MFI was normalized to control untreated cells and expressed as percentage of change.

[2] = system: U87 human glioma cancer cells; test: Presto Blue cell survival, RUVIDAR with or without N-acetylcysteine; assay type: cell-based; conditions: overnight
Method: U87 human glioma cancer cells were plated overnight, then treated with different doses of RUVIDAR in the presence or absence of N-acetylcysteine, a known ROS scavenger to quench the increase in ROS production. Cells were incubated overnight, and cell survival was analyzed using Presto Blue assay.

[3] = system: human Herpes Simplex 1 (HSV-1) virus; test: HSV-1 virus yield in A549 host cells by plaque forming assay, with Bliss synergy score; assay type: cell-based; conditions: for HSV-1 yield suppression, single agent: A549 host cells, MOI 0.3, three days, 50 nM RUVIDAR or RUTHERRIN, 1 μM Acyclovir, 0.2% DMSO
Method: A549 human lung cancer cells are used as a host for virus growth, treatment, and later survival quantification. A549 cells are plated overnight, then incubated for 4 hours with or without 50 nM RUVIDAR or RUTHERRIN, with or without 1 μM Acyclovir or 0.2% DMSO (concentration non-toxic for the host cells). After the initial incubation of the host cells with the compounds, the cells are infected with the human Herpes Simplex 1 (HSV-1) virus at the multiplicity of infection (MOI)=0.3 and further incubated for three days (the mentioned compounds are still present in the culture media over the full course of incubation). After that, supernatant is harvested, centrifuged to remove debris, and the yield of infectious virus is determined by plaque forming assay (PFA) using supernatant for the host cells infection. The formed plaques are counted, and virus titer is calculated as Plaque Forming Units/mL=(Plaques number*Dilution)/Volume of Virus Inoculum. Titers normalized for control titer (untreated HSV-1 and host cells) produce relative virus yield (which is equivalent to inhibition rate).
The data are presented as virus yield normalized to Control. To estimate synergistic effect of two combined compounds, synergy Bliss score was calculated, as the difference between the actual inhibiting effect of the combination and the predicted inhibiting effect under “no synergy” assumption (Bliss score): Synergy score=Inhibition_RateCompound1 & Compound2−(Inhibition_RateCompound1+Inhibition_RateCompound2−Inhibition_RateCompound1* Inhibition_RateCompound2).

CD47 [4] = test: CD47 expression by flow cytometry in T24 cells; assay type: cell-based, human; conditions: 3 μM for 2 days, MFI normalized to untreated cells
Method: (§1) In the tests whose results are shown in FIGS. 8A and 8B, T24 human bladder cancer cells or U87 human glioma cells were treated with 3 μM of RUVIDAR or RUTHERRIN for 2 days, and cells were collected and stained with fluorescent-labelled antibodies to CD47 and PD-L1 and analyzed by flow cytometry. MFI was normalized to control untreated cells and expressed as percentage of change.

PD-L1 = PD-L1 expression by flow cytometry in T24 cells; assay type: cell-based, human; conditions: 3 μM for 2 days, MFI normalized to untreated cells
Chain of PD-L1 (Q9NZQ7 19-290): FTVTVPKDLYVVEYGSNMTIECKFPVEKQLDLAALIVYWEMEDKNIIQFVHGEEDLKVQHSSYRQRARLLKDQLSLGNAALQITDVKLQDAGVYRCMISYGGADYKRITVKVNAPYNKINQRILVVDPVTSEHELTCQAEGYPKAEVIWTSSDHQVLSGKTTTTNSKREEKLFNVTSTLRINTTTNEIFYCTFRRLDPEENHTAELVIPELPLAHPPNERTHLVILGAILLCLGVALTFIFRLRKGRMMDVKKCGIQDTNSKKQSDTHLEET
Method: as §1

[5] = system: A549 human Non-Small Cell Lung Cancer cells; test: Hoechst 33342 dye accumulation by flow cytometry (MFI); assay type: cell-based; conditions: 3 μM 4 hours, then Hoechst 33342 1 hour
Method: (§2) Hoechst 33342 is a nuclear dye commonly used to quantify drug efflux dynamics and drug accumulation in cells. […] Cells were then collected, and the MFI was determined by flow cytometry.

U87 human glioma cells = test: as above; assay type: cell-based; conditions: 3 μM 4 hours, then Hoechst 33342 1 hour
Method: as §2

[6] = 50 nM RUVIDAR or RUTHERRIN plus 1 μM Acyclovir
[7] = 50 nM RUVIDAR or RUTHERRIN plus 0.2% DMSO

Chain of CD47 (Q08722 19-323): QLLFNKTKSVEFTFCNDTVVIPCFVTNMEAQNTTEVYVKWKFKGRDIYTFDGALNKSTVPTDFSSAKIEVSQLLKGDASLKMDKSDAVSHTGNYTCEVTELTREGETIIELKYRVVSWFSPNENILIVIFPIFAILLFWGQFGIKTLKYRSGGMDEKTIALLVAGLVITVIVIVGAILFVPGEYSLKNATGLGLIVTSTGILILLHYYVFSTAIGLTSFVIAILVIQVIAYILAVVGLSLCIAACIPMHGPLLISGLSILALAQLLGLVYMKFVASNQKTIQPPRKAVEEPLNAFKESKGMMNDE

Compound	percentage change in CD47 expression, drug alone (CD47 [1]; no radiation)	percentage change in CD47 expression, with ionizing radiation (CD47 [1]; then ionizing radiation)	cell kill percent ([2]; RUVIDAR only, different doses)	cell kill percent in the presence of N-acetylcysteine ([2]; RUVIDAR plus ROS scavenger N-acetylcysteine)	HSV-1 yield suppression, combined with Acyclovir [3, 6]	synergy score (Bliss), combined with Acyclovir [3, 6]	HSV-1 yield suppression, combined with DMSO [3, 7]	synergy score (Bliss), combined with DMSO [3, 7]	HSV-1 yield suppression, single agent [3]	percentage change in expression of CD47 (CD47 [4])	percentage change in expression of PD-L1 (PD-L1)	Hoechst 33342 dye accumulation (MFI) [5]	Hoechst 33342 dye accumulation (MFI) (U87 human glioma cells)
Ru(4,4′-dimethyl-2,2′-bipyridine)2(2-(2′,2″:5″,2″-terthiophene)-imidazo[4,5-f][1,10] phenanthroline) [RUVIDAR]	significantly reduced	more significant reduction	dose-dependent increase in cell kill	significantly reduced	significantly potentiated	0.040±0.013	significantly potentiated	0.030±0.010	anti-viral effect to various degrees	significantly reduced	significantly reduced	increases dye accumulation inside the cells	increases dye accumulation inside the cells
C[S+](C)[O-] [DMSO]	–	–	–	–	–	–	–	–	anti-viral effect to various degrees	–	–	–	–
Nc1nc2c(ncn2COCCO)c(=O)[nH]1 [Acyclovir, reference compound]	–	–	–	–	–	–	–	–	anti-viral effect to various degrees	–	–	–	–
